# Measured values reported in ChEMBL document CHEMBL1201862, “PubChem BioAssay data set” (2004).
# The source made the active and inactive calls.
# Legend:
# HeLa = assay: ATP-based viability loss in HeLa cells – cell-based, CellTiter-Glo luminescence, cherry-pick samples, cytotoxicity control for MITF activator project, dose response (AID 540259); format: functional; conditions: Homo sapiens
# [1] = molecular target: T1, Heat shock factor protein 1 (Mus musculus, UniProt P38532); assay: decrease of HSF1-responsive luciferase luminescence – cell-based, NIH3T3, dose retest, confirmation (AID 2382); format: functional;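 also: NIH3T3 fibroblasts with HSF1-driven luciferase reporter stressed by proteasome inhibitor MG132; luminescence from HSF1-driven luciferase expression after 8 hours of MG132 stress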
# T1 sequence (P38532 whole entry): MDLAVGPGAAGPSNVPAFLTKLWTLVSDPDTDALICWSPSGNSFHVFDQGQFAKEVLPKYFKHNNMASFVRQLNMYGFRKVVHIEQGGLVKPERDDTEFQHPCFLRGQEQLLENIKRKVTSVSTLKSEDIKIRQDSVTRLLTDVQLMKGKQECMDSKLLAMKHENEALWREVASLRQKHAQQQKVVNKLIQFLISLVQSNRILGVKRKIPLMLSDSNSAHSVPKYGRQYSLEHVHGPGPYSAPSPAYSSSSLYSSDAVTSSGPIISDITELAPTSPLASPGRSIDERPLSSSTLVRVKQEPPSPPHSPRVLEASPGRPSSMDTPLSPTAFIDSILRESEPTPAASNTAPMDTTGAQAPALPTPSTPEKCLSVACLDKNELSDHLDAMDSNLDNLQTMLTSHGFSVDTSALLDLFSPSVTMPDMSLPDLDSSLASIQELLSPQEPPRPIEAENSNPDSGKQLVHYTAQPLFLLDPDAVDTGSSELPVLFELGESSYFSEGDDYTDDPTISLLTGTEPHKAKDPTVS
# Escherichia coli = assay: microbe, parasite or virus in culture
# [2] = NIH-3T3 fibroblast cytotoxicity, dose response, cytotoxicity control, cell-based, fluorescence, Alamar Blue, secondary assay (AID 2327); format: functional;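 also: NIH-3T3 mouse fibroblasts cultured with fluconazole at 8 µg/mL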
# [3] = fluconazole-exposed Candida albicans growth modulators – fluorescence, retest, confirmation (AID 2467); format: functional, cell-based
# [4] = molecular target: Intestinal-type alkaline phosphatase (Homo sapiens, UniProt P09923); assay: inhibition of human intestinal alkaline phosphatase – biochemical, dose response (AID 488876); format: functional
# [5] = molecular target: T2, Alkaline phosphatase, tissue-nonspecific isozyme (Homo sapiens, UniProt P05186); assay: TNAP enzyme inhibition by screening hits, dose response, selectivity assay for mouse IAP inhibitor project, biochemical, human TNAP, uHTS hits (AID 488906); format: functional
# T2 sequence (P05186 whole entry): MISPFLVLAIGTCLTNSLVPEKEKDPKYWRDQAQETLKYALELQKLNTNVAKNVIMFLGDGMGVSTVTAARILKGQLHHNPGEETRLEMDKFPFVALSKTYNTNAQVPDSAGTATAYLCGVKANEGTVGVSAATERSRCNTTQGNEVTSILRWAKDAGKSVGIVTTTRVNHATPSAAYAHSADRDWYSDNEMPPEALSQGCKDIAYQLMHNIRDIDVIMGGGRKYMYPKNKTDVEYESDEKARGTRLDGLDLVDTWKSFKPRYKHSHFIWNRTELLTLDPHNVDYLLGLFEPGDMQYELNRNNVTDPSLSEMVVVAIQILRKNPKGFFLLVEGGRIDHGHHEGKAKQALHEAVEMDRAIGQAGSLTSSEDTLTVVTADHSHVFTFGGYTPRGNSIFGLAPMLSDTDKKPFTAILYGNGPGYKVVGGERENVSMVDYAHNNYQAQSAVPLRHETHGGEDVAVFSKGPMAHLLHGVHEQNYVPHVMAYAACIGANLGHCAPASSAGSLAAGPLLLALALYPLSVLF
# [6] = molecular target: Intestinal-type alkaline phosphatase (Mus musculus, UniProt P24822); assay: PubChem AID 488785; format: functional
# Sequence of Intestinal-type alkaline phosphatase (Mus musculus, UniProt P24822) (P24822 whole entry): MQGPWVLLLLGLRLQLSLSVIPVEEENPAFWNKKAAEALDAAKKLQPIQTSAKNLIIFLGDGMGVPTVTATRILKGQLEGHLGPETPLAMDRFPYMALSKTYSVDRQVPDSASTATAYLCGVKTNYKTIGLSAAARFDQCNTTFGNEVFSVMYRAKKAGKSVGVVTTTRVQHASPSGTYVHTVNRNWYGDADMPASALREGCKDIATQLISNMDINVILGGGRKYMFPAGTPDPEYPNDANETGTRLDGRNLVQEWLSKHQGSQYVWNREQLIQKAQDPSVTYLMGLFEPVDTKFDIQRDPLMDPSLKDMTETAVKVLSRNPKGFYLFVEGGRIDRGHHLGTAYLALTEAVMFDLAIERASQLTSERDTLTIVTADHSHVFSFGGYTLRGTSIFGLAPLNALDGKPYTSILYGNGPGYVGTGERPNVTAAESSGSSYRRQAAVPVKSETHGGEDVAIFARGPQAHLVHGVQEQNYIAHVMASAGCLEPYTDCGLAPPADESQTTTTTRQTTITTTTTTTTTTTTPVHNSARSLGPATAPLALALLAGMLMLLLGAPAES
# [7] = molecular target: FAD-linked sulfhydryl oxidase ALR (Homo sapiens, UniProt P55789); assay: ALR-catalysed DTT oxidation blockers – biochemical, H2O2 detection, luminescence, cherry-pick, dose response (AID 493248)
# Sequence of FAD-linked sulfhydryl oxidase ALR (P55789 whole entry): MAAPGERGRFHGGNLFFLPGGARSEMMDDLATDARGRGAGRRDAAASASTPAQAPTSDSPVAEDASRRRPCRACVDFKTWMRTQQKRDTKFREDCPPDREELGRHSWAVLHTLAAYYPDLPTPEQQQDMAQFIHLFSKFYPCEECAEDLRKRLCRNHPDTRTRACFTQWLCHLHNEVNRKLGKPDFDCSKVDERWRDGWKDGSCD
# Aminopeptidase N = molecular target: T3, Aminopeptidase N (Plasmodium falciparum FcB1/Columbia, UniProt O96935); assay: malaria alanyl aminopeptidase activity blockers – biochemical, fluorogenic H-Leu-NHMec substrate, 1536-well (AID 1445); parameters: species or system Plasmodium falciparum 3D7, 3D7
# T3 sequence (O96935 whole entry): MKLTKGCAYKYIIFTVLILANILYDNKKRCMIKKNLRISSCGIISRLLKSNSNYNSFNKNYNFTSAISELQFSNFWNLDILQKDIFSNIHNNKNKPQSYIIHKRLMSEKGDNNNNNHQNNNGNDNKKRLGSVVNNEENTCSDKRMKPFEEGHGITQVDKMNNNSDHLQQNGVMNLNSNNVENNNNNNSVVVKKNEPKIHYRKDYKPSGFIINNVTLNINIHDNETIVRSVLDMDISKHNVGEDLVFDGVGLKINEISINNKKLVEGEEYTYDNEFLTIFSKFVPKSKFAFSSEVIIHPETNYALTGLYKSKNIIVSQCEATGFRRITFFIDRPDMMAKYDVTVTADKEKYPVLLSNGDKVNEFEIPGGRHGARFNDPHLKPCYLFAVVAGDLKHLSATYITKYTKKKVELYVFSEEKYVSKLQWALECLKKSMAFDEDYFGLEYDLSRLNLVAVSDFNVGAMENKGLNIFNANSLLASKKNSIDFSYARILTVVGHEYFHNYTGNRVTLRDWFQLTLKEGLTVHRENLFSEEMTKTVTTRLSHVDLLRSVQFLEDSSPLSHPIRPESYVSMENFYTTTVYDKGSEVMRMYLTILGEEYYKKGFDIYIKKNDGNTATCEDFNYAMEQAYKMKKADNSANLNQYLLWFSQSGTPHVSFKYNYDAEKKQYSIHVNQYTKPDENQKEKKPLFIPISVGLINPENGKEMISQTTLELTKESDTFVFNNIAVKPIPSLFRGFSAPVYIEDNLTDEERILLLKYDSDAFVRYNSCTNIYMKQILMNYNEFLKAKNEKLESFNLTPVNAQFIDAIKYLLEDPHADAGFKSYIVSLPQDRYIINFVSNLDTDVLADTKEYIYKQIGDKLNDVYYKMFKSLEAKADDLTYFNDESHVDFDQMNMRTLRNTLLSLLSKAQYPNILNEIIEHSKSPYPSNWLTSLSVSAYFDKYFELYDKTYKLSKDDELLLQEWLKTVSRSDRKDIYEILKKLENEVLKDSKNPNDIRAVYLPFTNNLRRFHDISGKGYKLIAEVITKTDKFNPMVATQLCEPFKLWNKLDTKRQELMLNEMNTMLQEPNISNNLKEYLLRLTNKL
# [8] = molecular target: Peroxisome proliferator-activated receptor gamma/Nuclear receptor coactivator 1 (Homo sapiens, UniProt P37231); assay: TR-FRET dose response biochemical High Throughput Screening assay for agonists of the steroid receptor coactivator 1 (SRC-1) recruitment by the peroxisome proliferator-activated receptor gamma (PPAR gamma): non-selective agonists. [Related pubchem assays (depositor defined):AID1300, AID1808, AID504735, AID631]; format: protein assay
# Sequence of Peroxisome proliferator-activated receptor gamma/Nuclear receptor coactivator 1 (P37231 whole entry): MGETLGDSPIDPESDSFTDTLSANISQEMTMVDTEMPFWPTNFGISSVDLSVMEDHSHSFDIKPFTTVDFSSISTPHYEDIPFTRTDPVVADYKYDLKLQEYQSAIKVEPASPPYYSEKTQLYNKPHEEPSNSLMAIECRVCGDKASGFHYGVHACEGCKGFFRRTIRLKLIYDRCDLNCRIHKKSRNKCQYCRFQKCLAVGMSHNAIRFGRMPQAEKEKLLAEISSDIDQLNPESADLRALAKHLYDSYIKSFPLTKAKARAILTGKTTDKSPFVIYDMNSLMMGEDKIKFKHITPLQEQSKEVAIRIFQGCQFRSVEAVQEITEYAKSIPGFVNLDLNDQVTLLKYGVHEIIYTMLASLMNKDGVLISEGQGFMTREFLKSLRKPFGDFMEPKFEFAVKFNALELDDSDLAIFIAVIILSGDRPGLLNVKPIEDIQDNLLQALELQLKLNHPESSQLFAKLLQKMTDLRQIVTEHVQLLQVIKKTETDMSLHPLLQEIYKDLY
# Sequence of Peroxisome proliferator-activated receptor gamma/Nuclear receptor coactivator 1 (Q15788 whole entry, further chain): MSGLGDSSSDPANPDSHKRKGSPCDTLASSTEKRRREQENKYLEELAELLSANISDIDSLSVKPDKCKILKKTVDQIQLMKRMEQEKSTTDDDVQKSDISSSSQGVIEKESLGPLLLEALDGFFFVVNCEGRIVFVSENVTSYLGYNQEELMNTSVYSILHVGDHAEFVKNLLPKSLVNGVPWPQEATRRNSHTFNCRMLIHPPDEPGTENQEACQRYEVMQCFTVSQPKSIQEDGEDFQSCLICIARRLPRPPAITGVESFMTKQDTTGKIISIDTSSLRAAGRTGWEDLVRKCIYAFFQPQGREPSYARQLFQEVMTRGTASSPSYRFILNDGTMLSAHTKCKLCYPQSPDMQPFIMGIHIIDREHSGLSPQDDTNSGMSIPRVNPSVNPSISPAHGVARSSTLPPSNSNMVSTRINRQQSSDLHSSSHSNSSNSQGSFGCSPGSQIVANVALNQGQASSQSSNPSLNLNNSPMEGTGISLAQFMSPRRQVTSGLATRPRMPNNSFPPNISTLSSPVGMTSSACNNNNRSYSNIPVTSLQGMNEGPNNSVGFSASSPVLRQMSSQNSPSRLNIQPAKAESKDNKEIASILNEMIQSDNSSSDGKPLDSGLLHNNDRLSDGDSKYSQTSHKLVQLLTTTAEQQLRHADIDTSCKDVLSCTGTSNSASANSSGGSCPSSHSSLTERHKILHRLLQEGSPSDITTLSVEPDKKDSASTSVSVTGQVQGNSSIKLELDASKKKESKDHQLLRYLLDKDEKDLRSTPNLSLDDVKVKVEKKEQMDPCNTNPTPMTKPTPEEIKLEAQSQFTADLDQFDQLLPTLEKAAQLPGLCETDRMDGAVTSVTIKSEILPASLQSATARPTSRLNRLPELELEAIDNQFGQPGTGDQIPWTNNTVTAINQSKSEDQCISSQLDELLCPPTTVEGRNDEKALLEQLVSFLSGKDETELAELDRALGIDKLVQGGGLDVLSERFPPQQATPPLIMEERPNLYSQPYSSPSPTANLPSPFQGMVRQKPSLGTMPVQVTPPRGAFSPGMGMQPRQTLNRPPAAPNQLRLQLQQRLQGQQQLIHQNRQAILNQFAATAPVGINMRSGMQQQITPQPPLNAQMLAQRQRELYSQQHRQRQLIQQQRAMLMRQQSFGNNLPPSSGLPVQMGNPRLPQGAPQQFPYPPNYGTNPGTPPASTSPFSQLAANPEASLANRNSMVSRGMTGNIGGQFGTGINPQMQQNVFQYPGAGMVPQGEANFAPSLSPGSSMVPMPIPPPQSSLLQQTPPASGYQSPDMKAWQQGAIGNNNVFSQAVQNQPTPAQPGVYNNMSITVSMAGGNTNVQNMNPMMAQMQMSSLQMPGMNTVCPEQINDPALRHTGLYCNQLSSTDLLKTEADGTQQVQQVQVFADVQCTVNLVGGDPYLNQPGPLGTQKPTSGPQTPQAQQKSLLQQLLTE
# [9] = molecular target: Peroxisome proliferator-activated receptor gamma/Nuclear receptor coactivator 2 (Homo sapiens, UniProt P37231); assay: (§1) TR-FRET dose response biochemical High Throughput Screening assay for agonists of the steroid receptor coactivator 2 (SRC-2) recruitment by the peroxisome proliferator-activated receptor gamma (PPAR gamma): non-selective agonists. [Related pubchem assays: 1297, 1032 ]; format: functional
# [10] = molecular target: Peroxisome proliferator-activated receptor gamma/Nuclear receptor coactivator 3 (Homo sapiens, UniProt P37231); assay: as §1, with “3 (SRC-3)” for “2 (SRC-2)”, “1301 (Confirmation screen.), 1048 (Primary screen.)]” for “1297, 1032 ]”; format: functional
# Sequence of Peroxisome proliferator-activated receptor gamma/Nuclear receptor coactivator 3 (P37231 whole entry): as the sequence (P37231 whole entry) above
# Sequence of Peroxisome proliferator-activated receptor gamma/Nuclear receptor coactivator 3 (Q9Y6Q9 whole entry, further chain): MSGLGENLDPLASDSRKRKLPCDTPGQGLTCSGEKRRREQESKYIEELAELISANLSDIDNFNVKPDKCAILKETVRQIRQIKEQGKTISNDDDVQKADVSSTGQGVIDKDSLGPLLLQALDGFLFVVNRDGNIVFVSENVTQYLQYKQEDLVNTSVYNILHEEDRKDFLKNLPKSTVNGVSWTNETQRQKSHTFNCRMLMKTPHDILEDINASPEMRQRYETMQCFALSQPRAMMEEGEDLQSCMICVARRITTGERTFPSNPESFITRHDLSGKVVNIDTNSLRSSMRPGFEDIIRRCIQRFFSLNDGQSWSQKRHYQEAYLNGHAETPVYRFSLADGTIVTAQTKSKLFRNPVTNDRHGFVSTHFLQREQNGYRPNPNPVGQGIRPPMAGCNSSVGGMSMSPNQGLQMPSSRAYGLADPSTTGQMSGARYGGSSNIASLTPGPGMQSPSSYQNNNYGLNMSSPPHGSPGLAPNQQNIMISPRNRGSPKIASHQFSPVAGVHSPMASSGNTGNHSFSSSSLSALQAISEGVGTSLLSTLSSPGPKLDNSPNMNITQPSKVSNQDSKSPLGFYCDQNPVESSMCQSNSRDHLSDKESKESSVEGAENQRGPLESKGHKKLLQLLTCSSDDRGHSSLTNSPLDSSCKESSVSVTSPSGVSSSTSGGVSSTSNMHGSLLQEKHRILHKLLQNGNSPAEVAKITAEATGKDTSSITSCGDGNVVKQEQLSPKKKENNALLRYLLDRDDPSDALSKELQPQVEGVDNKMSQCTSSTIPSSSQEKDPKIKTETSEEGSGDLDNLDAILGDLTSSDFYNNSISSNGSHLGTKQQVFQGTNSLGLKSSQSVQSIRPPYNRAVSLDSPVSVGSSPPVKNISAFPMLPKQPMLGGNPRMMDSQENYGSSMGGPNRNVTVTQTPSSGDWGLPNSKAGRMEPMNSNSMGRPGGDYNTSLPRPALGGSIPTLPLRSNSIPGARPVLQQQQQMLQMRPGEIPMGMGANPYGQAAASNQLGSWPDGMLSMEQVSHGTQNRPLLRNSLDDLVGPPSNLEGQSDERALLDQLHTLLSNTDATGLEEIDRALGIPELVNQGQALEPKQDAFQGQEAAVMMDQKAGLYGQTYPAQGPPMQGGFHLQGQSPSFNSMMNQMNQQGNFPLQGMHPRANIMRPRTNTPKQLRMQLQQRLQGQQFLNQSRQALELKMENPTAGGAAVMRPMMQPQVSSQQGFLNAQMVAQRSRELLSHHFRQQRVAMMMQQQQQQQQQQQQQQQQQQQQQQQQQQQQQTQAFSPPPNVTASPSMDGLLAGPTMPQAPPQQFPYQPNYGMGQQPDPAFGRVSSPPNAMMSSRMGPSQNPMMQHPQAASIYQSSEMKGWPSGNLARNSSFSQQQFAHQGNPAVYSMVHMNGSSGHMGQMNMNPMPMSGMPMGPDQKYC
# [11] = viability of uninfected HEp-2 cells – cell-based, HTS, cytotoxicity control for RSV inhibitor project, dose response (AID 2410); format: functional; conditions: human respiratory syncytial virus
# [12] = MIN6 cell viability loss – mouse insulinoma, cytotoxicity control, dose response (AID 2122); format: functional;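 also: confirmatory high-throughput counterscreen run to flag cytotoxic compounds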
# [13] = Trypanosoma cruzi growth suppression in host cells – NIH3T3 host cells, beta-gal luminescence, confirmation (AID 2044); format: functional, cell-based;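 also: intracellular parasites grown in NIH/3T3 mouse fibroblasts as host cells; luminescent beta-galactosidase reporter signal from transgenic T. cruzi replicating inside host cells; inhibitors lower the luminescence signal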
# [14] = decrease of insulin promoter-GFP reporter – imaging, high-content screening, mouse beta cells (AID 1628); format: functional; conditions: MIN6
# [15] = NIH3T3 cell viability loss – ATP luminescence, mouse fibroblasts, counter-screen, dose response (AID 2010); format: functional, cell-based;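 also: cells exposed to compound for about 90 hours before reading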
# H4 = assay: Luminescence Cell-Based Dose Response HTS to Identify Activators of 5'UTR Stem-Loop Driven Prion Protein mRNA Translation in H4 Neuroglioblastoma Cells. [Related pubchem assays: 1829 (Project Summary), 1814 (Primary HTS)]; format: functional; conditions: Homo sapiens
# [16] = Luminescence Cell-Based Dose Confirmation HTS to Identify Activators of 5'UTR Stem-Loop Driven Alpha-Synuclein mRNA Translation in H4 Neuroglioblastoma Cells. [Related pubchem assays: 1829 (Project Summary), 1814 (Primary HTS)]; format: functional
# [17] = Luminescence Cell-Based Dose Response HTS to Identify Activators of Luciferase Translation or Activity in H4 […] Cells. [Related pubchem assays: 1829 (Project Summary), 1814 (Primary HTS)]; format: functional
# [18] = molecular target: G-protein coupled receptor 55 (Homo sapiens, UniProt Q9Y2T6); assay: selective activators of receptor GPR55 – imaging, U2OS cells, beta-arrestin-GFP redistribution, primary screen (AID 1961); format: functional
# Sequence of G-protein coupled receptor 55 (Q9Y2T6 whole entry): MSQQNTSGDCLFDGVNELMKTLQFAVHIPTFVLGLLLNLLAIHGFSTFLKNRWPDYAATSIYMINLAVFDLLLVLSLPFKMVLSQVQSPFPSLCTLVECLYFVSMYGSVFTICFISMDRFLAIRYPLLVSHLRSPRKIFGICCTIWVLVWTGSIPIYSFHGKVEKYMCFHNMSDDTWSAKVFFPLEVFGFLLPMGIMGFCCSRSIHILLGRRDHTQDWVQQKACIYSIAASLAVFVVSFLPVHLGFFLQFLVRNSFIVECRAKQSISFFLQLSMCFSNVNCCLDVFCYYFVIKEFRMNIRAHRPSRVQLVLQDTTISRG
compound,measurement,setting,value
N=C(NOC(=O)c1ccc2c(c1)OCO2)c1ccc(Cl)cc1,AC50,HeLa,69 µM (active)
O=C(c1ccc(Cl)cc1)C1CCCN(Cc2ccc3c(c2)OCCO3)C1 (stereo unspecified),EC50,[1],> 195 µM (not active)
same,AC50,Escherichia coli,190 µM (active)
Cc1ccc(N2NC(C)(c3cccs3)N=C2S)cc1 (stereo unspecified),EC50,[2],7.74 µM (active)
same,EC50,[3],1.27 µM (active)
same,AC50,HeLa,> 350 µM (inactive)
Cc1ccc(S(=O)(=O)Nc2ccc(O)c(Sc3nc[nH]n3)c2)cc1,IC50,[4],> 100 µM (inactive)
same,IC50,[5],> 100 µM (inactive)
same,IC50,[6],13.8 µM (active)
same,AC50,[7],3.31 µM (active)
same,IC50,Aminopeptidase N,83.8 µM (active)
O=c1cc(CSc2nc3nncc-3c(O)n2-c2ccc(Br)cc2)nc2ccc(Br)cn12,EC50,[8],15.8 µM (inactive)
same,EC50,[9],11.6 µM (not active)
same,EC50,[10],48.1 µM (not active)
same,CC50,[11],22.8 µM (active)
CCN(CC)c1nc(-c2ccccn2)nc(-c2ccccc2)c1C#N,EC50,[2],> 160 µM (inconclusive)
same,IC50,[12],3.09 µM (active)
same,EC50,[13],1.57 µM (active)
same,IC50,[14],2.71 µM (active)
same,EC50,[3],> 38 µM (not active)
same,EC50,[15],6.71 µM (active)
CC(C)C[C@@H](CSc1ccccc1)N1CCN(CC(C)C)CCC1=O,EC50,H4,> 120 µM (not active)
same,EC50,[16],5.27 µM (active)
same,EC50,[17],41.4 µM (active)
same,AC50,HeLa,147 µM (active)
same,EC50,[18],14.1 µM (inactive)
